# Measurements from patent US5441732A, “Reversible gelation emulsion compositions and methods of use” (Allergan, Inc., priority 1992, dated 1995).
# Where two headings read alike, the source gives them in different places.
# Assays:
# [1] = Drug solubility in oil at room temperature; format: physicochemical; settings: for Drug solubility in Miglyol: Miglyol 812
# [2] = cited from earlier work
solubility in diethyl phthalate [1],SMILES,Drug solubility in Diethyl Phthalate [1],Drug solubility in Miglyol [1],water solubility ([2]; pH 4.0),water solubility ([2]; pH 7.4)
relatively low,CC(=O)[C@@]1(O)CC[C@H]2[C@@H]3C[C@H](C)C4=CC(=O)C=C[C@]4(C)[C@@]3(F)[C@@H](O)C[C@@]21C [Fluorometholone],0.075%,< 0.001%,–,–
–,CC(C(=O)O)c1ccc(-c2ccccc2)c(F)c1 (stereo not shown) [Flurbiprofen (free acid)],12-20%,2-4%,very small,higher
